pEC50: −log10 of the molar value.

This experiment deals with HCV genotype 1b replicon. The experiment in a line: HCV replicon assay (1b_Huh-Luc/Neo-ET cell line, luciferase readout). The class given is cell-based. The following applies: Hepatitis C virus, Huh-7, 72 h, read-out: Inhibition of HCV genotype 1b. The method in brief: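 1b_Huh-Luc/Neo-ET Huh 7 cells carrying a bicistronic genotype 1b replicon; compounds added in triplicate the day after plating, 72 h incubation, then Bright-Glo luciferase read-out. Signal expressed as % of control; EC50 from curve fit, repeated several times.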
For orientation: In antiviral work, replicon cells carry a viral genome segment that copies itself.
For the compound `COC(=O)N[C@H](C(=O)N1CCC[C@H]1c1nc(-c2ccc3cc(-c4ccc(-c5cnc([C@@H]6CCCN6C(=O)[C@H](NC(=O)OC6CCOCC6)c6ccccc6)[nH]5)cc4)ccc3c2)c[nH]1)C1CCOCC1` [compound 113], the pEC50 is over 9.00.

On to `COC(=O)N[C@H](C(=O)N1CCC[C@H]1c1nc(-c2ccc3cc(-c4ccc(-c5cnc([C@@H]6CCCN6C(=O)[C@H](NC(=O)OC)c6ccccc6)[nH]5)cc4F)ccc3c2)c[nH]1)C1CCOCC1` [compound 114], for which the pEC50 is over 9.00.

As for `COC(=O)N[C@H](C(=O)N1CCC[C@H]1c1ncc(-c2ccc3cc(-c4ccc(-c5cnc([C@@H]6CCCN6C(=O)[C@H](NC(=O)OC)c6ccccc6)[nH]5)cc4)ccc3c2)[nH]1)[C@@H](C)OC` [compound 115], the pEC50 was over 9.00.

In the case of `COC(=O)N[C@H](C(=O)N1CCC[C@H]1c1ncc(-c2ccc3cc(-c4ccc(-c5cnc([C@@H]6CCCN6C(=O)[C@@H](c6ccccc6)N6CCOCC6)[nH]5)cc4)ccc3c2)[nH]1)C(C)C` [compound 116], the pEC50 was over 9.00.

As for `COC(=O)N[C@H](C(=O)N1CCC[C@H]1c1ncc(-c2ccc3cc(-c4ccc(-c5cnc([C@@H]6CCCN6C(=O)[C@H](NC(=O)OC6CCOCC6)c6ccccc6)[nH]5)cc4)ncc3c2)[nH]1)C1CCOCC1` [compound 117], the pEC50 is over 9.00.

With `COC(=O)N[C@H](C(=O)N1CCC[C@H]1c1ncc(-c2ccc3cc(-c4ccc(-c5cnc([C@@H]6CCCN6C(=O)[C@H](NC(=O)OC(C)(C)C)c6ccccc6)[nH]5)cc4)ncc3c2)[nH]1)C1CCOCC1` [compound 118], the pEC50 is over 9.00.

Take `COC(=O)N[C@H](C(=O)N1CCC[C@H]1c1ncc(-c2ccc(-c3ccc4cc(-c5cnc([C@@H]6CCCN6C(=O)[C@H](NC(=O)OC)c6ccccc6)[nH]5)ccc4n3)c(F)c2)[nH]1)C(C)C` [compound 119]: the pEC50 was over 9.00.

`COC(=O)N[C@H](C(=O)N1CCC[C@H]1c1ncc(-c2ccc(-c3ccc4cc(-c5cnc([C@@H]6CCCN6C(=O)[C@@H](NC(=O)OC)C6CCOCC6)[nH]5)ccc4n3)c(F)c2)[nH]1)C(C)C` [compound 120]: the pEC50 is over 9.00.

As for `COC(=O)N[C@H](C(=O)N1CCC[C@H]1c1ncc(-c2ccc(-c3ccc4cc(-c5cnc([C@@H]6CCCN6C(=O)[C@H](NC(=O)OC6CCOCC6)c6ccccc6)[nH]5)ccc4n3)c(F)c2)[nH]1)C(C)C` [compound 121], the pEC50 is over 9.00.

Regarding `COC(=O)N[C@H](C(=O)N1CCC[C@H]1c1ncc(-c2ccc(-c3ccc4cc(-c5cnc([C@@H]6CCCN6C(=O)[C@H](NC(=O)OC(C)(C)C)c6ccccc6)[nH]5)ccc4n3)c(F)c2)[nH]1)C(C)C` [compound 122], the pEC50 is over 9.00.

As for `COC(=O)N[C@H](C(=O)N1CCC[C@H]1c1ncc(-c2ccc(-c3ccc4cc(-c5cnc([C@@H]6CCCN6C(=O)[C@@H](NC(=O)OC)C6CCOCC6)[nH]5)ccc4n3)cc2F)[nH]1)C(C)C` [compound 123], the pEC50 is over 9.00.

On to `COC(=O)N[C@H](C(=O)N1CCC[C@H]1c1ncc(-c2ccc(-c3ccc4cc(-c5cnc([C@@H]6CCCN6C(=O)[C@H](NC(=O)OC)c6ccccc6)[nH]5)ccc4n3)cc2F)[nH]1)C(C)C` [compound 124], for which the pEC50 is over 9.00.

Consider `COC(=O)N[C@H](C(=O)N1CCC[C@H]1c1ncc(-c2ccc(-c3ccc4cc(-c5cnc([C@@H]6CCCN6C(=O)[C@H](NC(=O)OC6CCOCC6)c6ccccc6)[nH]5)ccc4n3)cc2F)[nH]1)C(C)C` [compound 125], for which the pEC50 is over 9.00.

Take `COC(=O)N[C@H](C(=O)N1CCC[C@H]1c1ncc(-c2ccc3nc(-c4ccc(-c5cnc([C@@H]6CCCN6C(=O)[C@@H](NC(=O)OC)C(C)C)[nH]5)c(F)c4)ccc3c2)[nH]1)C(C)C` [compound 126]: the pEC50 is over 9.00.

For `COC(=O)N[C@H](C(=O)N1CCC[C@H]1c1ncc(-c2ccc3cc(-c4ccc(-c5cnc([C@@H]6CCCN6C(=O)[C@H](NC(=O)OC)c6ccccc6)[nH]5)c(F)c4)ncc3c2)[nH]1)C1CCOCC1` [compound 127], the pEC50 was over 9.00.

With `COC(=O)N[C@H](C(=O)N1CCC[C@H]1c1ncc(-c2ccc(-c3cc4ccc(-c5cnc([C@@H]6CCCN6C(=O)[C@@H](NC(=O)OC)C6CCOCC6)[nH]5)cc4cn3)cc2F)[nH]1)C(C)C` [compound 128], the pEC50 is over 9.00.

For the compound `COC(=O)N[C@H](C(=O)N1CCC[C@H]1c1ncc(-c2ccc(-c3ccc4cc(-c5cnc([C@@H]6CCCN6C(=O)[C@H](NC(=O)OC)c6ccccc6)[nH]5)ccc4n3)c(F)c2)[nH]1)C1CCOCC1` [compound 129], the pEC50 is over 9.00.

Consider `COC(=O)N[C@H](C(=O)N1CCC[C@H]1c1ncc(-c2cccc(-c3cccc4cc(-c5cnc([C@@H]6CCCN6C(=O)[C@@H](NC(=O)OC)C(C)C)[nH]5)ccc34)c2)[nH]1)C(C)C` [compound 130], for which the pEC50 is over 9.00.

Consider `COC(=O)N[C@H](C(=O)N1CCC[C@H]1c1ncc(-c2ccc3cc(-c4ccc(-c5cnc([C@@H]6COCCN6C(=O)[C@H](NC(=O)OC)c6ccccc6)[nH]5)cc4)ccc3c2)[nH]1)C(C)C` [compound 131], for which the pEC50 is over 9.00.

Consider `COC(=O)N[C@H](C(=O)N1CCC[C@H]1c1ncc(-c2ccc(-c3ccc4cc(-c5cnc([C@@H]6COCCN6C(=O)[C@H](NC(=O)OC)c6ccccc6)[nH]5)ccc4c3)cc2)[nH]1)C(C)C` [compound 132], for which the pEC50 was over 9.00.

On to `COC(=O)N[C@H](C(=O)N1CCC[C@H]1c1ncc(-c2ccc(-c3ccc4cc(-c5cnc([C@@H]6CCCN6C(=O)[C@@H](NC(=O)OC)C6CCOCC6)[nH]5)ccc4c3)cc2)[nH]1)C1CCOCC1` [compound 133], for which the pEC50 is over 9.00.

For `COC(=O)N[C@H](C(=O)N1CCC[C@H]1c1ncc(-c2ccc3nc(-c4ccc(-c5cnc([C@@H]6CCCN6C(=O)[C@H](NC(=O)OC)c6ccccc6)[nH]5)cc4F)ccc3c2)[nH]1)C1CCOCC1` [compound 134], the pEC50 is over 9.00.

In the case of `COC(=O)N[C@H](C(=O)N1CCC[C@H]1c1ncc(-c2ccc3nc(-c4ccc(-c5cnc([C@@H]6CCCN6C(=O)[C@H](NC(=O)OC(C)(C)C)c6ccccc6)[nH]5)cc4F)ccc3c2)[nH]1)C1CCOCC1` [compound 135], the pEC50 is over 9.00.

As for `COC(=O)N[C@H](C(=O)N1CCC[C@H]1c1ncc(-c2ccc(-c3ccc4cc(-c5cnc([C@@H]6CCCN6C(=O)[C@H](NC(=O)OC(C)(C)C)c6ccccc6)[nH]5)ccc4n3)c(F)c2)[nH]1)C1CCOCC1` [compound 136], the pEC50 is over 9.00.

In the case of `COC(=O)N[C@H](C(=O)N1CCOC[C@H]1c1ncc(-c2ccc(-c3ccc4cc(-c5cnc([C@@H]6CCCN6C(=O)[C@H](NC(=O)OC)c6ccccc6)[nH]5)ccc4c3)cc2)[nH]1)C(C)C` [compound 137], the pEC50 was over 9.00.

As for `COC(=O)N[C@H](C(=O)N1CCOC[C@H]1c1ncc(-c2ccc3cc(-c4ccc(-c5cnc([C@@H]6CCCN6C(=O)[C@H](NC(=O)OC)c6ccccc6)[nH]5)cc4)ccc3c2)[nH]1)C(C)C` [compound 138], the pEC50 was over 9.00.

Regarding `COC(=O)N[C@H](C(=O)N1CCC[C@H]1c1ncc(-c2ccc3cc(-c4ccc(-c5cnc([C@@H]6COCCN6C(=O)[C@@H](NC(=O)OC)C(C)C)[nH]5)cc4)ccc3c2)[nH]1)C(C)C` [compound 139], the pEC50 was over 9.00.

For the compound `COC(=O)N[C@H](C(=O)N1CCC[C@H]1c1ncc(-c2ccc(-c3ccc4cc(-c5cnc([C@@H]6COCCN6C(=O)[C@@H](NC(=O)OC)C(C)C)[nH]5)ccc4c3)cc2)[nH]1)C(C)C` [compound 140], the pEC50 was over 9.00.

Turning to `COC(=O)N[C@H](C(=O)N1CCC[C@H]1c1ncc(-c2ccc(-c3ccc4cc(-c5cnc([C@@H]6CCCN6C(=O)[C@@H](NC(=O)OC)C6CCOCC6)[nH]5)ccc4c3)c(F)c2)[nH]1)C1CCOCC1` [compound 141], the pEC50 was over 9.00.

Take `CC[C@@H](C)[C@H](NC(=O)OC)C(=O)N1CCC[C@H]1c1ncc(-c2ccc(-c3ccc4cc(-c5cnc([C@@H]6CCCN6C(=O)[C@@H](NC(=O)OC)[C@H](C)CC)[nH]5)ccc4c3)cc2)[nH]1` [compound 142]: the pEC50 is over 9.00.

With `COC(=O)N[C@H](C(=O)N1CCC[C@H]1c1ncc(-c2ccc(-c3ccc4cc(-c5cnc([C@@H]6CCCN6C(=O)[C@@H](NC(=O)OC)C6CC6)[nH]5)ccc4c3)cc2)[nH]1)C1CC1` [compound 143], the pEC50 is over 9.00.

Consider `CNC(=O)N[C@@H](C(=O)N1CCC[C@H]1c1ncc(-c2ccc(-c3cc4ccc(-c5cnc([C@@H]6CCCN6C(=O)[C@@H](NC(=O)OC)C6CCOCC6)[nH]5)cc4cn3)cc2)[nH]1)c1ccccc1` [compound 144], for which the pEC50 was over 9.00.

For `COC(=O)N[C@H](C(=O)N1CCC[C@H]1c1ncc(-c2ccc3cc(-c4ccc(-c5cnc([C@@H]6CCCN6C(=O)[C@H](NC(=O)NC6CC6)c6ccccc6)[nH]5)cc4)ncc3c2)[nH]1)C1CCOCC1` [compound 145], the pEC50 was over 9.00.

On to `COC(=O)N[C@H](C(=O)N1CCC[C@H]1c1ncc(-c2ccc3nc(-c4ccc(-c5cnc([C@@H]6C[C@@H](O)CN6C(=O)[C@@H](NC(=O)OC)C(C)C)[nH]5)cc4)ccc3c2)[nH]1)C(C)C` [compound 146], for which the pEC50 was over 9.00.

As for `COC(=O)N[C@H](C(=O)N1C[C@H](O)C[C@H]1c1ncc(-c2ccc(-c3ccc4cc(-c5cnc([C@@H]6CCCN6C(=O)[C@@H](NC(=O)OC)C6CCOCC6)[nH]5)ccc4n3)cc2)[nH]1)C(C)C` [compound 147], the pEC50 was over 9.00.

For `COC(=O)N[C@H](C(=O)N1C[C@H](O)C[C@H]1c1ncc(-c2ccc(-c3ccc4cc(-c5cnc([C@@H]6CCCN6C(=O)[C@H](NC(=O)OC)c6ccccc6)[nH]5)ccc4n3)cc2)[nH]1)C(C)C` [compound 148], the pEC50 was over 9.00.

On to `COC(=O)N[C@H](C(=O)N1C[C@H](O)C[C@H]1c1ncc(-c2ccc(-c3ccc4cc(-c5cnc([C@@H]6CCCN6C(=O)[C@H](NC(=O)OC6CCOCC6)c6ccccc6)[nH]5)ccc4n3)cc2)[nH]1)C(C)C` [compound 149], for which the pEC50 was over 9.00.

For the compound `COC(=O)N[C@H](C(=O)N1CCC[C@H]1c1ncc(-c2ccc(-c3cc4ccc(-c5cnc([C@@H]6CCCN6C(=O)[C@@H](NC(=O)OC)C(C)C)[nH]5)cc4cn3)c(F)c2)[nH]1)C(C)C` [compound 150], the pEC50 is over 9.00.
